Results on 1 compound are retold here after US10508092B2, “Synthesis of novel analogs of diptoindonesin G, compounds formed thereby, and pharmaceutical compositions containing them” (Wisconsin Alumni Research Foundation, priority 2016, dated 2019).

Data set [1] deals with estrogen receptor β (ERβ). Description: Western blot of FLAG-ERβ levels in Hs578T-ERβLuc Dox-inducible cells. The class given is cell-based, human. Conditions: Hs578T-ERβLuc Dox-inducible line, 10 μM, 5 days, Western blot (anti-FLAG). On the procedure: FIGS. 2A, 2B, and 2C together depict the biological activity of the subject compounds on estrogen receptor β (ERβ) levels in human breast cancer cells.
The biological activity of these four analogs were then compared with the parent compound Dip G following our previous protocol (Zhao et al., supra). See FIGS. 1A, 1B, 1C, 2A, 2B, and 2C. Cells were treated with each compound at 10 μM concentration in order to evaluate how well each modified the stability of ERα and ERβ.
MCF7 cells were treated with Dip G and analogs for 24 hours before harvesting. Hs578T-tet-on-ERβ cells (ATCC HTB-126; American Type Culture Collection, Manassas, Va.) were treated with doxycycline for 24 hours to induce ERβ expression. Then the cells were treated with compounds for 5 days before harvesting. 15 μg of total cell lysates were resolved on SDS-PAGE and Western blot analyses were performed as previously described using ERα antibody (HC-20, Santa Cruz Biotechnology, Inc., Dallas, Tex.) and anti-FLAG antibody (F7425, Sigma-Aldrich Co., LLC, St. Louis, Mo.) for ERβ.^3
A general note: A western blot detects proteins with antibodies after separation by electrophoresis.

Data set [2] is described as follows: Maximum tolerated dose in mouse models. The settings on record: in vivo, five days out of seven. On the procedure:
Dip G was synthesized as described and formulated for the in vivo treatment. Dip G was prepared by dissolving the stock powder in 100% DMSO to a final concentration of 50 mg/ml. This stock solution was then diluted 1:5 into a 40% polyethylene glycol (PEG300)/40% normal saline (0.9% NaCl) solution to a final concentration of 20% Dip G solution. […] To determine MTD, escalating doses of Dip G dissolved in the aforementioned formulation were injected retro-orbitally or by oral gavage daily, five days out of seven to determine the MTD. […] (Data not shown.) Dip G was intra-tumorally delivered to ERα-positive T47D xenografted mice three times a week and the tumors were monitored for three weeks. […] (AST ELISAs are available commercially from several suppliers, including Abcam, Cambridge, Mass.)

Data set [3] is described as follows: Pharmacokinetics (plasma concentration by HPLC and LC/MS) in mice. The class given is in vivo. Conditions: mouse.
Data set [4] has as its system T47D xenograft tumor. Description: T47D xenograft tumor growth in mice, intra-tumoral dosing. The class given is in vivo, mouse. How it is done:
Dip G inhibited growth of T47D xenograft tumor in vivo. Dip G was synthesized as described and formulated for the in vivo treatment. Dip G was prepared by dissolving the stock powder in 100% DMSO to a final concentration of 50 mg/ml. This stock solution was then diluted 1:5 into a 40% polyethylene glycol (PEG300)/40% normal saline (0.9% NaCl) solution to a final concentration of 20% Dip G solution. The maximum tolerated dose (MTD) of Dip G was determined to be 50 mg/kg by oral and 20 mg/kg by retro-orbital injection in mouse models. To determine MTD, escalating doses of Dip G dissolved in the aforementioned formulation were injected retro-orbitally or by oral gavage daily, five days out of seven to determine the MTD. […] (Data not shown.) Dip G was intra-tumorally delivered to ERα-positive T47D xenografted mice three times a week and the tumors were monitored for three weeks. […] Control-treated tumors were 70% of original size, while tumors (n=16) treated with Dip G were 46% of original size (FIG. 3). Under these treatment conditions, some Dip G-treated tumors completely regressed. […] (AST ELISAs are available commercially from several suppliers, including Abcam, Cambridge, Mass.)
Diptoindonesin G (Dip G) was obtained from the small molecule screening facility. Dip G was prepared by dissolving the stock powder in 100% DMSO to a final concentration of 50 mg/mL. This stock solution was then diluted 1:5 into a 40% polyethylene glycol (PEG 300)/40% normal saline (0.9% NaCl) solution to a final concentration of 20% Dip G solution. Vehicle was prepared identically, substituting DMSO instead of Dip G solution. PEG and saline were filtered at […] prior to use to ensure sterility.
Twelve Foxn1-nu homozygous mice were obtained from The Jackson Laboratory (Bar Harbor, Me.). Mice were randomized to control or active treatment prior to estrogen pellet placement. After allowing time for acclimatization, estrogen pellets were surgically inserted into the test mice, subcutaneously on the back. The skin at the site of surgery was prepared by washing with povidone iodine, allowing a three-minute contact time. Surgery was performed in a laminar flow hood while mice were under anesthesia. Incisions of less than 1 cm were made low in the back using a short scissors. Slow-release estrogen pellets (0.05 mg/60 day release) were implanted in each incision. Wounds were sealed with “VETBOND”®-brand surgical adhesive (3M Company, St. Paul, Minn.). At the same time, the mice were injected with 10^7 T-47D cells (ATCC HTB-133) twice, once in each mammary fat pad underneath the leg with 100 uL of fluid per injection site, using 25G needles.
Mice were monitored twice weekly for weight changes and tumor growth (measured in diameter and volume) with calipers. Following tumors reaching an appropriate size (˜5 mm in diameter, taking approximately 3 months after grafting), intra-tumoral injections were begun with vehicle containing 20 mg/kg of Dip G or control vehicle in a total volume of 50 μL split between tumors on each mammary fat pad. Three mice (6 tumors) received control injections and eight (16 tumors) received Dip G. Injections were administered 3 times per week with at least one day of rest between injections, for a total of 10-12 injections. Cohorts were sacrificed by cage individually in numerical order, beginning with the 10th injection and sacrificing one cage per injection for pharmacokinetic time points from that injection onward. In mice with very small tumors, dosing was switched from intra-tumoral to subcutaneous at later time points.

The subject of data set [5] is estrogen receptor α (ERα). Conditions: breast cancer, Zhao et al. 2015; cited from earlier work.
Where [6] appears, read: individual tumor, 20 mg/kg intra-tumoral 3 times per week, 20 mg/kg.

Molecules are shown by their SMILES. Where “and” joins values, the source holds several entries; their conditions need not be identical. Equal entries are not always repeated.

Turning to `O=C1c2c(O)cc(O)cc2-c2c(-c3ccc(O)cc3)oc3cc(O)cc1c23` [Dip G, diptoindonesin G], in data set [1], the ERβ stability result is given as “strongly stabilized”. The MTD (as a rule, the highest dose tested that stayed within the study's limit of toxicity) in data set [2] (oral gavage daily) was found to be 50 mg/kg. Also, the MTD in data set [2] (other: retro-orbital injection, retro-orbital injection daily) came to 20 mg/kg. In addition, the half-life (in general, the time in which the quantity being followed falls by half) in data set [3] was 1 h. In addition, the “tumor size as % of original size” value in data set [4] (T47D xenograft, 20 mg/kg intra-tumoral 3 times per week, 21 days, n=16 tumors, control 70%) worked out at 46%. Besides, the “responders (tumors decreasing by 50% or more)” value in data set [4] (T47D xenograft, 12 of 16 tumors, control 17%, p=0.023) was found to be 75%. Further, the xenografted tumor growth result in data set [4] (T47D xenograft, 21 days, versus vehicle-treated controls) is “strongly inhibited”. In addition, in data set [4] (T47D xenograft, at study completion, n=16 tumors, control 30%), the “decrease in tumor volume” value is recorded as 54%. Moreover, in data set [4] (setting [6]), the “Tumor Volumes, Day 3” value is 113.1 mm^3 and 29.8 mm^3 and 71.4 mm^3 and 25.7 mm^3 and 69.6 mm^3 and 17.2 mm^3 and 126.0 mm^3 and 79.8 mm^3 and 144.9 mm^3 and 40.7 mm^3 and 43.3 mm^3 and 70.7 mm^3 and 30.8 mm^3 and 15.1 mm^3 and 149.4 mm^3 and 68.9 mm^3; the “Tumor Volumes, Day 5” value was 100.0 mm^3 and 34.7 mm^3 (2×) and 36.0 mm^3 and 58.8 mm^3 (2×) and 23.1 mm^3 and 108.0 mm^3 and 84.7 mm^3 and 152.5 mm^3 and 51.6 mm^3 and 44.0 mm^3 and 36.1 mm^3 and 18.9 mm^3 and 111.6 mm^3 and 87.7 mm^3; the “Tumor Volumes, Day 8” value was 74.1 mm^3 and 20.0 mm^3 and 26.0 mm^3 and 14.5 mm^3 and 52.9 mm^3 and 14.0 mm^3 and 65.0 mm^3 and 55.0 mm^3 and 99.1 mm^3 and 32.8 mm^3 and 46.6 mm^3 and 55.2 mm^3 and 20.7 mm^3 and 21.8 mm^3 and 43.6 mm^3 and 40.3 mm^3; the “Tumor Volumes, Day 10” value was 106.2 mm^3 and 73.0 mm^3 and 39.2 mm^3 and 37.6 mm^3 and 64.8 mm^3 and 28.1 mm^3 and 105.6 mm^3 and 95.3 mm^3 and 123.0 mm^3 and 49.0 mm^3 and 56.1 mm^3 and 58.2 mm^3 and 32.9 mm^3 and 44.5 mm^3 and 63.6 mm^3 and 67.7 mm^3. Also, in data set [4] (setting [6]), the “Tumor Volumes, Day 12” value was 225.3 mm^3 and 33.6 mm^3 and 34.5 mm^3 and 18.5 mm^3 and 77.2 mm^3 and 13.9 mm^3 and 123.6 mm^3 and 0.5 mm^3 (2×) and 97.7 mm^3 and 48.7 mm^3 and 49.0 mm^3 and 63.6 mm^3 and 29.4 mm^3 and 23.1 mm^3 and 189.2 mm^3; the “Tumor Volumes, Day 15” value is 81.6 mm^3 and 41.6 mm^3 and 35.3 mm^3 and 32.0 mm^3 and 78.0 mm^3 and 19.7 mm^3 and 72.5 mm^3 and 37.0 mm^3 and 62.5 mm^3 and 22.9 mm^3 and 35.4 mm^3 and 53.0 mm^3 and 22.0 mm^3 and 20.1 mm^3 and 92.5 mm^3 and 49.6 mm^3; the “Tumor Volumes, Day 19” value was 91.9 mm^3 and 38.8 mm^3 and 12.0 mm^3 and 19.7 mm^3 and 45.6 mm^3 and 11.5 mm^3 and 58.8 mm^3 and 28.7 mm^3 and 90.9 mm^3 and 15.6 mm^3 and 24.6 mm^3 and 35.7 mm^3 (2×) and 14.9 mm^3 and 9.3 mm^3 and 58.2 mm^3; the “Tumor Volumes, Day 23” value was 0.5 mm^3 and 12.2 mm^3 and 9.1 mm^3 and 29.7 mm^3 and 81.5 mm^3 and 10.3 mm^3 and 51.9 mm^3 and 13.1 mm^3 and 7.9 mm^3 and 9.5 mm^3 and 28.1 mm^3 and 29.8 mm^3 and 18.5 mm^3 and 10.1 mm^3 and 34.2 mm^3 and 14.9 mm^3. In addition, the “Tumor Volumes, Day 0” value in data set [4] (individual tumor, baseline, T47D xenograft) is 75.1 mm^3 and 40.3 mm^3 and 39.7 mm^3 and 71.3 mm^3 (2×) and 50.8 mm^3 and 25.4 mm^3 and 80.2 mm^3 (2×) and 96.2 mm^3 and 24.9 mm^3 and 70.2 mm^3 and 29.6 mm^3 and 23.1 mm^3 and 47.1 mm^3 and 52.9 mm^3. In addition, the “stability of ERα” value in data set [5] was “decreases the stability”.
